The structures appear in SMILES notation. Converted amounts (≈) assume the structure as drawn.

Data on one compound can be found in ChEMBL document CHEMBL5543083, “3,5-Disubstituted-thiazolidine-2,4-dione hybrids as antidiabetic agents: Design, synthesis, in-vitro and In vivo evaluation” (Eur J Med Chem, 2024).

The nature of assay [1]: Antioxidant activity assessed as DPPH radical scavenging activity. The format is functional.
In another assay the target is T1, Alpha amylase (Homo sapiens, UniProt P0DUB6).
T1 sequence (P0DUB6 whole entry): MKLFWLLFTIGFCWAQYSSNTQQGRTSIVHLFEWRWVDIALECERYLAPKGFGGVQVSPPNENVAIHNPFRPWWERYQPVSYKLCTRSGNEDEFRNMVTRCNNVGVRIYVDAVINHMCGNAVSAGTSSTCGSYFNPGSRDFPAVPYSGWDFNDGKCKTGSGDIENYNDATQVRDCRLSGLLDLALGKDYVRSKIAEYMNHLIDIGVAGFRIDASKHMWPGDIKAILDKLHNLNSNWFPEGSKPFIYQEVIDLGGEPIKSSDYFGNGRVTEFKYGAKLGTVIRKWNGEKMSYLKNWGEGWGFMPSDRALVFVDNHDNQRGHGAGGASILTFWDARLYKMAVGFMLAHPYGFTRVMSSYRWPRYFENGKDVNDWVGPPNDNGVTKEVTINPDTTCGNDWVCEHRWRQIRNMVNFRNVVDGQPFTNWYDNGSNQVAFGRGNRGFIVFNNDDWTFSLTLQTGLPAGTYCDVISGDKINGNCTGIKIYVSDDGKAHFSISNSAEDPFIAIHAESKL
The assay is described as follows: Inhibition of Alpha-amylase (unknown origin). It is filed as protein assay.

Take `O=C(O)CN1C(=O)S/C(=C\c2ccc3c(c2)OCO3)C1=O`: the IC50 was 10.78 µg/mL (≈ 35.1 µM) in assay [1] and 10.26 µg/mL (≈ 33.4 µM) against Alpha amylase.
